{
  "source": "ChEMBL document CHEMBL5678818",
  "about": "“Discovery of potent SOS1 inhibitors that block RAS activation via disruption of the RAS-SOS1 interaction” (Proc Natl Acad Sci U S A, 2019)",
  "key": {"[1]": {"tested_on": "Phosphatidylinositol 4,5-bisphosphate 3-kinase catalytic subunit alpha isoform (Homo sapiens), P42336 [M1043I]", "sequence (P42336 whole entry M1043I, canonical isoform)": "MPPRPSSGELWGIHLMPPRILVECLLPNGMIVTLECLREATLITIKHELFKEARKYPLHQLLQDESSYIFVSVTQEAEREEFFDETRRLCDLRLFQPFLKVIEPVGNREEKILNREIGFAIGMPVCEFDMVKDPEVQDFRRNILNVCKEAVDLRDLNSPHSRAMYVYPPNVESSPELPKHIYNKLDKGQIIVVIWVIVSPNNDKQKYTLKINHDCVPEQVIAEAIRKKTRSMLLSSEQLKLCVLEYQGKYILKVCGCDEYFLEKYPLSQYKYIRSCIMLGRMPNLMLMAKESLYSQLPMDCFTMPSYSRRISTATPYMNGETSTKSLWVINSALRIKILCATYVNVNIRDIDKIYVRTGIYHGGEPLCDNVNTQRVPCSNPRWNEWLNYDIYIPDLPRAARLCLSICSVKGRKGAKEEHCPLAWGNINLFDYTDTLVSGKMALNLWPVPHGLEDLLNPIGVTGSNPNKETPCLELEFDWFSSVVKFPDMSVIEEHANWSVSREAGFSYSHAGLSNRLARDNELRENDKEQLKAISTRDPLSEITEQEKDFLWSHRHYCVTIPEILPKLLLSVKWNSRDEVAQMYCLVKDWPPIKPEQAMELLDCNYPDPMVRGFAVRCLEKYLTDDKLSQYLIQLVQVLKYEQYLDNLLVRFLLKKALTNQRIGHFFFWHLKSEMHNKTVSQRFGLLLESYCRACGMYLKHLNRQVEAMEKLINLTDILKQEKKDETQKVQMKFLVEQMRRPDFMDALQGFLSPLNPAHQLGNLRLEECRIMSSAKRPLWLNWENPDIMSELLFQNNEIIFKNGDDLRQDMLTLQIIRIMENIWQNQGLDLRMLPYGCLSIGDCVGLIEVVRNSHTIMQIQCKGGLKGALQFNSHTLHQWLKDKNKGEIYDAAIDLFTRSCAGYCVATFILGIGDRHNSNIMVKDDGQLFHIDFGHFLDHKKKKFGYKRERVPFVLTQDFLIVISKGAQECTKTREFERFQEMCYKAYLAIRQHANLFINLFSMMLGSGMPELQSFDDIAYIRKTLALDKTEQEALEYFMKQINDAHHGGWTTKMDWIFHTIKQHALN", "test": "Inhibition of PIK3CA M1043I mutant (unknown origin) assessed as residual activity at 100 nM by KINOMEscan analysis relative to control"}, "[2]": {"biological_target": "Death-associated protein kinase 1 (Homo sapiens) (UniProt P53355)", "test": "Inhibition of DAPK1 (unknown origin) assessed as residual activity at 100 nM by KINOMEscan analysis relative to control"}, "[3]": {"biological_target": "Calcium/calmodulin-dependent protein kinase type II subunit gamma (Homo sapiens) (UniProt Q13555)", "sequence (Q13555 whole entry)": "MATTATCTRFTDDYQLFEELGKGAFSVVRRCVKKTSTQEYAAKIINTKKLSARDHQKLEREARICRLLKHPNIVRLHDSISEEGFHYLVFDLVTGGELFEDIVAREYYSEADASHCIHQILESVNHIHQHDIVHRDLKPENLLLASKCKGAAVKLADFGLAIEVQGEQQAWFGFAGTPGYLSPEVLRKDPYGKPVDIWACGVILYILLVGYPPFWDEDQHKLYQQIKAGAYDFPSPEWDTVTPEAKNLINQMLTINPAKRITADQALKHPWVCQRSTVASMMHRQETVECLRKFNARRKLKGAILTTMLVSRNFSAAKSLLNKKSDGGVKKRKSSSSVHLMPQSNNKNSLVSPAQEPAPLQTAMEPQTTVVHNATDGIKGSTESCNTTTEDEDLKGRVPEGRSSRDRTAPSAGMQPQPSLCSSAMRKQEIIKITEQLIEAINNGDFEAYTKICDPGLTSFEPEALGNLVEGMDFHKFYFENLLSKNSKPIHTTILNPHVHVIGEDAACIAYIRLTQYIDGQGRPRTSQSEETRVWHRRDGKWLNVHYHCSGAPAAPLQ", "test": "Inhibition of CAMK2G (unknown origin) assessed as residual activity at 100 nM by KINOMEscan analysis relative to control"}, "[4]": {"tested_on": "SOS1-KRAS (Homo sapiens), Q07889+P01116 [G12C]", "test": "Inhibition of N-terminal GST-tagged recombinant human KRAS G12C mutant (1 to 169 residues) expressed in Escherichia coli/N-terminal His10-tagged wild-type recombinant human SOS1 catalytic domain (564 to 1049 residues) expressed in Escherichia coli protein-protein interaction assessed as reduction in FRET signal by HTRF analysis"}, "[5]": {"biological_target": "Focal adhesion kinase 1 (Homo sapiens) (UniProt Q05397)", "sequence (Q05397 2-1052 limits assumed)": "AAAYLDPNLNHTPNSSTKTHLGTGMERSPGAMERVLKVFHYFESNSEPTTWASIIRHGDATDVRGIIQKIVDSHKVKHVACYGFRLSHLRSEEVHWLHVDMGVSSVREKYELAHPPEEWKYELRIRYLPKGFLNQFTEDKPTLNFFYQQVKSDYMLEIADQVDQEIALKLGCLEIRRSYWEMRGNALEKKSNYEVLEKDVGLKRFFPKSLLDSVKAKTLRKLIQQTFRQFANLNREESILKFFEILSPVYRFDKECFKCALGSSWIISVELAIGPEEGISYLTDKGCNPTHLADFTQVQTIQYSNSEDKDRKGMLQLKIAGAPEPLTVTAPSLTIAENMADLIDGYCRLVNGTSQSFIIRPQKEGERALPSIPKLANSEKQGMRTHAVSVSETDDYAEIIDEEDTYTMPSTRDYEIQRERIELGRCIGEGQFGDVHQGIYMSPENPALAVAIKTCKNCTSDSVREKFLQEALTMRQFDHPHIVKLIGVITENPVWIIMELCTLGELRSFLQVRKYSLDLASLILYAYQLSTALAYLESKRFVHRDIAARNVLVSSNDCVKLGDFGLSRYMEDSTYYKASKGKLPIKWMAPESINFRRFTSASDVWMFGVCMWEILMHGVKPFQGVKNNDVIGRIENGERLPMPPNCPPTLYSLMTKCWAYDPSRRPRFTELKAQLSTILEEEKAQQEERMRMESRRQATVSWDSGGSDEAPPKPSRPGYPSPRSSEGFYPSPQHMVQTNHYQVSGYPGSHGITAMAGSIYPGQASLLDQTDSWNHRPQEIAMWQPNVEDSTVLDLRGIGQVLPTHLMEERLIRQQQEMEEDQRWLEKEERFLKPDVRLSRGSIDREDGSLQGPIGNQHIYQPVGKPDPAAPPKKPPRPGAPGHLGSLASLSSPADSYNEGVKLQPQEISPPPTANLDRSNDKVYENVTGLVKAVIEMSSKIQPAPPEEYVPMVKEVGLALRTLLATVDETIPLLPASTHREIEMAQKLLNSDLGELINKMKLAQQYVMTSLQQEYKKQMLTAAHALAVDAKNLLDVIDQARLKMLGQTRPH", "test": "Inhibition of FAK (unknown origin) assessed as residual activity at 100 nM by KINOMEscan analysis relative to control"}, "[6]": {"biological_target": "Wee1-like protein kinase 2 (Homo sapiens) (UniProt P0C1S8)", "test": "Inhibition of WEE2 (unknown origin) assessed as residual activity at 100 nM by KINOMEscan analysis relative to control"}, "[7]": {"tested_on": "Tyrosine-protein kinase ABL1 (Homo sapiens), P00519 [H396P]", "test": "Inhibition of nonphosphorylated ABL1 H396P mutant (unknown origin) assessed as residual activity at 100 nM by KINOMEscan analysis relative to control"}, "[8]": {"biological_target": "T1, Serine/threonine-protein kinase DCLK3 (Homo sapiens) (UniProt Q9C098)", "T1 sequence (whole entry)": "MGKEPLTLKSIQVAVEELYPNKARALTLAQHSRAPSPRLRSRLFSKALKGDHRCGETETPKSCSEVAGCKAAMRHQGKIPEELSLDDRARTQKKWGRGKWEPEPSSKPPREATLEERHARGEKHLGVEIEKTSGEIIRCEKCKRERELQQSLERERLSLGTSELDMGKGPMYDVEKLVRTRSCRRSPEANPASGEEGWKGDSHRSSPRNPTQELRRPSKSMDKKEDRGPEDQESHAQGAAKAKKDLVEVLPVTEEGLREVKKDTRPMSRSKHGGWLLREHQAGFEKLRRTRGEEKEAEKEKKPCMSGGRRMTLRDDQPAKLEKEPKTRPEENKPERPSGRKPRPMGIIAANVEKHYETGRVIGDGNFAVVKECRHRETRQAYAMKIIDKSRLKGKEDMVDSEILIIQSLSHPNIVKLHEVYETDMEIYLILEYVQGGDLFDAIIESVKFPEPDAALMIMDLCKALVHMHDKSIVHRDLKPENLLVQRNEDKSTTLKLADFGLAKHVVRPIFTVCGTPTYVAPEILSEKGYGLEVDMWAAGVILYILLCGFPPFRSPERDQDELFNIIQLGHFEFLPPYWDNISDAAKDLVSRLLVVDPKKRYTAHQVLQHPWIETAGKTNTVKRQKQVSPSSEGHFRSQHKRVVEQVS", "test": "Inhibition of DCAMKL3 (unknown origin) assessed as residual activity at 100 nM by KINOMEscan analysis relative to control"}, "[9]": {"biological_target": "Serine/threonine-protein kinase MRCK gamma (Homo sapiens) (UniProt Q6DT37)", "sequence (Q6DT37 whole entry)": "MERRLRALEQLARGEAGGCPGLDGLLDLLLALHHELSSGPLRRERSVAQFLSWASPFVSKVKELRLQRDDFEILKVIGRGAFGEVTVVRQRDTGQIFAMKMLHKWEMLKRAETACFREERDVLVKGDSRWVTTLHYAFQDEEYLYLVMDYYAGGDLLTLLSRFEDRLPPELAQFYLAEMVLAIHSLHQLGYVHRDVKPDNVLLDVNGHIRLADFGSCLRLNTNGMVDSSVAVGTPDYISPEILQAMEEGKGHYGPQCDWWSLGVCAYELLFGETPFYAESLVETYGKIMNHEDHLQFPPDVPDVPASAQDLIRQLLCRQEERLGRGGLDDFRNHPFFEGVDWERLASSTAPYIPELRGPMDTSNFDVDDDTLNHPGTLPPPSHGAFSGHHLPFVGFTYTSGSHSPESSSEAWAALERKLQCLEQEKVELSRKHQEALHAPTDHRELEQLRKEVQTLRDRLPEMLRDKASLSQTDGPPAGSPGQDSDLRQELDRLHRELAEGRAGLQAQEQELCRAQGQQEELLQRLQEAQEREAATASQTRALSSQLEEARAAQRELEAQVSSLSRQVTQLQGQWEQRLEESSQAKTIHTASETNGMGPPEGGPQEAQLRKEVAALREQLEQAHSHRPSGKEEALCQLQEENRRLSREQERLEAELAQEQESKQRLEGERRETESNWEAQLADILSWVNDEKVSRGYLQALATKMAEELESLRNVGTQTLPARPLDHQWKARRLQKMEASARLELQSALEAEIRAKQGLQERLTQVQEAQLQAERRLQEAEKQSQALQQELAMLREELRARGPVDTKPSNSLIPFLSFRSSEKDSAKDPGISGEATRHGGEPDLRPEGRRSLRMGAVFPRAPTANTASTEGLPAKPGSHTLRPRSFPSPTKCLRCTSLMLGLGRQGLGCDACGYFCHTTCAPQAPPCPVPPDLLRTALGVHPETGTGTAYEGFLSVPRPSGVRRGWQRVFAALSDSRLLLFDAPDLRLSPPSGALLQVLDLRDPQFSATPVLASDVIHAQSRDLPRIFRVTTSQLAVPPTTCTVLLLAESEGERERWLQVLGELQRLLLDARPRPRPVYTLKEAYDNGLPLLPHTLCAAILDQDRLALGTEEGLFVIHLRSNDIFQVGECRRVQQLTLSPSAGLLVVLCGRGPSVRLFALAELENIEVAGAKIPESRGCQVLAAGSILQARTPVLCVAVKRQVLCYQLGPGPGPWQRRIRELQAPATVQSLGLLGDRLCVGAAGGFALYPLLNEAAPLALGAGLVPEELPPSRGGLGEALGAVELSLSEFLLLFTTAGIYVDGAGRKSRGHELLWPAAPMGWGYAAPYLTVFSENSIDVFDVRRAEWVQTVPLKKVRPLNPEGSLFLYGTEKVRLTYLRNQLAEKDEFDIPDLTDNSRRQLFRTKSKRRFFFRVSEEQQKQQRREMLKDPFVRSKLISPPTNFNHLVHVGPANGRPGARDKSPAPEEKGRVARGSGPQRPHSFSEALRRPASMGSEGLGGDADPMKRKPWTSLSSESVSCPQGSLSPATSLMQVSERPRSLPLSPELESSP", "test": "Inhibition of DMPK2 (unknown origin) assessed as residual activity at 100 nM by KINOMEscan analysis relative to control"}, "[10]": {"tested_on": "Receptor-type tyrosine-protein kinase FLT3 (Homo sapiens), P36888 [D835Y]", "test": "Inhibition of FLT3 D835Y mutant (unknown origin) assessed as residual activity at 100 nM by KINOMEscan analysis relative to control"}, "[11]": {"biological_target": "Serine/threonine-protein kinase OSR1 (Homo sapiens) (UniProt O95747)", "sequence (O95747 whole entry, looked up)": "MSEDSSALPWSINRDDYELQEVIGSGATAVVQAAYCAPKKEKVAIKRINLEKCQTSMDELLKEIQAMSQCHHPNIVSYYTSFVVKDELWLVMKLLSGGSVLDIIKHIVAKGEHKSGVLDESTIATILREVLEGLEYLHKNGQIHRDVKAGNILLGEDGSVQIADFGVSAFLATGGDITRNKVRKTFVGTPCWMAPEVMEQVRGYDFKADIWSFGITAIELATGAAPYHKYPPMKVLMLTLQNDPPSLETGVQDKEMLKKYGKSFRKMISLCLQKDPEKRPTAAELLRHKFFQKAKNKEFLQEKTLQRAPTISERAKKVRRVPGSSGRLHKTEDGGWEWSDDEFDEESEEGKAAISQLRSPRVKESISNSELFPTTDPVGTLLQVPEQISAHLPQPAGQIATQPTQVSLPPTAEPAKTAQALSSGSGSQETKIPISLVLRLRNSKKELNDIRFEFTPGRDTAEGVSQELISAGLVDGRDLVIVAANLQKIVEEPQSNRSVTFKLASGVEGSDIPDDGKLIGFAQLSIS", "test": "Inhibition of OSR1 (unknown origin) assessed as residual activity at 100 nM by KINOMEscan analysis relative to control"}, "[12]": {"biological_target": "T2, Serine/threonine-protein kinase Chk1 (Homo sapiens) (UniProt O14757)", "T2 sequence (whole entry)": "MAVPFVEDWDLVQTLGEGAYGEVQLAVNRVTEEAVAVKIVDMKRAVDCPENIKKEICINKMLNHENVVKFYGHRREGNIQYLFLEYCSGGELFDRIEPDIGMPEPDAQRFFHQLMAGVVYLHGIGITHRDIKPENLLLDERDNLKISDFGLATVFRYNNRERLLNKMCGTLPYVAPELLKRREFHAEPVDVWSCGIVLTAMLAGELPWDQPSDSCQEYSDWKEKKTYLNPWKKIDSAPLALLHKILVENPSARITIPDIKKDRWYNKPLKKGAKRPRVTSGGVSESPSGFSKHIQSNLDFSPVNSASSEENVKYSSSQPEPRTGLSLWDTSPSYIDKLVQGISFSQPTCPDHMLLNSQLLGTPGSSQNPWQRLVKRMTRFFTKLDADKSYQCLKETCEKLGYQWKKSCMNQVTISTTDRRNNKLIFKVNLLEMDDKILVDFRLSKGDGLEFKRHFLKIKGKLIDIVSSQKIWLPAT", "test": "Inhibition of CHEK1 (unknown origin) assessed as residual activity at 100 nM by KINOMEscan analysis relative to control"}, "[13]": {"tested_on": "Epidermal growth factor receptor (Homo sapiens), P00533 [T790M]", "test": "Inhibition of EGFR T790M mutant (unknown origin) assessed as residual activity at 100 nM by KINOMEscan analysis relative to control"}, "[14]": {"biological_target": "Tyrosine-protein kinase ABL1 (Homo sapiens) (UniProt P00519)", "test": "Inhibition of phosphorylated ABL1 (unknown origin) assessed as residual activity at 100 nM by KINOMEscan analysis relative to control"}},
  "note": "Active and inactive are the calls of the source. No cut-off for these calls is given here.",
  "data": [
    {"smiles": "COc1cc2ncnc(N[C@H](C)c3cccc4ccccc34)c2cc1OC", "values": [
      {"measurement": "Activity", "setting": "[1]", "result": 89, "unit": "%"},
      {"measurement": "Activity", "setting": "[2]", "result": 100, "unit": "%"},
      {"measurement": "Activity", "setting": "[3]", "result": 60, "unit": "%"},
      {"measurement": "Activity", "setting": "[4]", "result": "Active"},
      {"measurement": "Activity", "setting": "[5]", "result": 100, "unit": "%"},
      {"measurement": "Activity", "setting": "[6]", "result": 100, "unit": "%"},
      {"measurement": "Activity", "setting": "[7]", "result": 100, "unit": "%"},
      {"measurement": "Activity", "setting": "[8]", "result": 84, "unit": "%"},
      {"measurement": "Activity", "setting": "[9]", "result": 33, "unit": "%"},
      {"measurement": "Activity", "setting": "[10]", "result": 98, "unit": "%"},
      {"measurement": "Activity", "setting": "[11]", "result": 89, "unit": "%"},
      {"measurement": "Activity", "setting": "[12]", "result": 100, "unit": "%"},
      {"measurement": "Activity", "setting": "[13]", "result": 96, "unit": "%"},
      {"measurement": "Activity", "setting": "[14]", "result": 93, "unit": "%"}
    ]}
  ]
}
